{"source": "paper PMC2211469", "about": "“Viroporin potential of the lentivirus lytic peptide (LLP) domains of the HIV-1 gp41 protein” (Virology Journal, 2007)", "assay": "Tb3+/DPA microwell plate leakage assay", "details": "positive control, complete dissolution of membranes", "method": "The Tb^3+/DPA assay, a high throughput leakage assay developed by Rausch and Wimley, 2001, was employed in order to determine each LLP peptide's ability to disturb lipid membrane integrity. […] To this end, Tb^3+ was entrapped in Large Unilamellar Vesicles composed of 10% POPG: 90% POPC diluted in a KPO4 buffer containing DPA. Only upon membrane disruption was terbium able to come into contact with DPA in the buffer generating a fluorescent complex. Various ratios of peptide:lipid were incubated together in a microwell plate and the resulting fluorescence emissions were monitored under UV irradiation. LLP -1, -2, and -1D peptides used in this study were not NBD labeled, but were N-terminally labeled with a tryptophan residue for quantification.\nTo prepare Tb^3+ LUVs, lipids were resuspended to 100 mM concentration in 50 mM Tb^3+, 100 mM sodium citrate, 10 mM TES pH 7.2. Gel Filtration on Sephadex G-200 was used to elute LUVs and remove unencapsulated Tb^3+ in a buffer of 10 mM TES and 325 mM NaCl. Final lipid concentrations were determined by phosphate analysis. […] Finally, samples were heated in a water bath with AmMo and ascorbic acid for 10–15 minutes and absorbance at 660 nm was measured. Concentrations were determined by comparison to a standard curve generated using known KPO4 concentrations. […]", "data": [{"substance": "Triton X-100", "values": [{"measurement": "leakage of vesicles", "value": 100, "unit": "%"}]}]}
